These results are taken from PubChem BioAssay (NCI).

The structures appear in SMILES notation.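 96-well plates; 48 h exposure; 5 concentrations. Endpoints by linear interpolation between flanking doses. Not reached: highest tested concentration assigned. GI50 marks 50% less growth. TGI: concentration producing complete growth inhibition.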 Peptide text beside a SMILES is read from it. * marks the point of attachment. OSu = O=C1CCC(=O)N1O*; OBn = c1ccc(CO*)cc1; Bn = c1ccc(C*)cc1 Bounds are passed on as bounds.

Among the test systems are HCT-15 colon; SF-268 CNS; NCI-H460 lung; SK-OV-3 ovarian; A549 NSCLC; HCC-2998 colon; RXF 393 renal; NCI-H226 lung; RPMI-8226 leukemia; MOLT-4 leukemia.
Common to all, as to assay: NCI-60 cell line screen, 48 h

As to `O=C1C=C(NCCc2cc(Br)c(O)c(Br)c2)C(=O)c2[nH]cnc21`, the TGI in the experiment on HCT-15 colon, in the experiment with SF-268 CNS, in the experiment on NCI-H460 lung, in the experiment with SK-OV-3 ovarian, in the experiment on A549 NSCLC and with HCC-2998 colon was greater than 100 µM each time. In addition, the TGI in the experiment on RXF 393 renal is 98 µM; in the experiment on NCI-H226 lung, greater than 100 µM.

For the molecule `CN1CCN(c2c(O)c3c(c(O)c2Cl)C(=O)C=CC3=O)CC1`, the TGI with HCT-15 colon was found to be 0.491 µM; in the experiment on SF-268 CNS it was 3.72 µM; with NCI-H460 lung, 3.77 µM; in the experiment with RPMI-8226 leukemia, 2.34 µM; in the experiment with SK-OV-3 ovarian it was 8.34 µM; in the experiment with A549 NSCLC it was 4.27 µM. Besides, the TGI turned out to be 3.99 µM in the experiment with HCC-2998 colon, 0.602 µM in the experiment with RXF 393 renal and 4.08 µM in the experiment with NCI-H226 lung.

As to `CCc1cc2c(oc3c4ccccc4ccc23)c(=O)[nH]1`, the TGI in the experiment on SF-268 CNS, with NCI-H460 lung, in the experiment on SK-OV-3 ovarian, in the experiment on MOLT-4 leukemia, in the experiment on A549 NSCLC and in the experiment with RXF 393 renal was greater than 10 µM throughout. In the experiment on NCI-H226 lung, this molecule gave a TGI greater than 10 µM.

On to `Cc1cnc2[nH]c(-c3cccc(Cl)c3)cc(=O)c2c1`, for which the TGI with HCT-15 colon was greater than 100 µM; in the experiment on SF-268 CNS it was 34.5 µM; with NCI-H460 lung it was greater than 58.2 µM; in the experiment on SK-OV-3 ovarian it was greater than 100 µM; in the experiment on A549 NSCLC, greater than 100 µM; with RXF 393 renal, 85.5 µM. The TGI in the experiment with NCI-H226 lung was 87.3 µM.

As to `COc1ccc(/C=C/C(c2cc(OC)c(OC)c(OC)c2)n2cncn2)cc1O` (centres undefined), the GI50 is 0.0508 µM in the experiment on HCT-15 colon; 0.059 µM with SF-268 CNS; 0.0423 µM with NCI-H460 lung; 0.037 µM in the experiment on RPMI-8226 leukemia; 4.56 µM in the experiment with A549 NSCLC; 3 µM with HCC-2998 colon. The GI50 with NCI-H226 lung was 5.93 µM. The TGI with HCT-15 colon was greater than 100 µM; in the experiment with SF-268 CNS, greater than 100 µM; in the experiment on NCI-H460 lung it was 51.9 µM; with RPMI-8226 leukemia it was 42.2 µM; in the experiment on A549 NSCLC, greater than 100 µM; in the experiment on HCC-2998 colon it was greater than 100 µM. In addition, in the experiment with NCI-H226 lung, the TGI was greater than 100 µM.

As to `COc1cc([C@@H]2c3cc4c(cc3[C@@H](Nc3ccc(NC(=O)c5cc(NC(=O)c6cc([N+](=O)[O-])cn6C)cn5C)cc3)[C@H]3COC(=O)[C@H]23)OCO4)cc(OC)c1O`, the TGI is greater than 55.2 µM with HCT-15 colon; greater than 79.7 µM in the experiment with SF-268 CNS; 13.2 µM in the experiment on NCI-H460 lung; 0.486 µM with RPMI-8226 leukemia; greater than 55.7 µM in the experiment with SK-OV-3 ovarian; greater than 49.9 µM with A549 NSCLC. The results for the TGI in the experiment with HCC-2998 colon, in the experiment with RXF 393 renal and in the experiment with NCI-H226 lung were 26.4 µM, greater than 62.3 µM and greater than 44.4 µM, respectively.

For `O=C1C(CN2CCCC2)CCCC1CN1CCCC1` (centres undefined), the TGI was 4.54 µM in the experiment with HCT-15 colon; 52.3 µM in the experiment with SF-268 CNS; 43.5 µM in the experiment with NCI-H460 lung; 3.97 µM in the experiment on RPMI-8226 leukemia; 31.9 µM with SK-OV-3 ovarian; 39.3 µM in the experiment with A549 NSCLC. For the same molecule, the TGI in the experiment with HCC-2998 colon stood at 34.3 µM; in the experiment on RXF 393 renal, 8.08 µM; with NCI-H226 lung it was 59.1 µM.

As for `CC(=O)C(C(=O)C(C)(C)C)C(=O)C(C)(C)C`, the TGI in the experiment with HCT-15 colon, with SF-268 CNS, in the experiment with NCI-H460 lung, in the experiment on RPMI-8226 leukemia, in the experiment with SK-OV-3 ovarian and in the experiment with MOLT-4 leukemia was greater than 100 µM each time. Further, the TGI in the experiment with A549 NSCLC, in the experiment on HCC-2998 colon and in the experiment with RXF 393 renal was greater than 100 µM in each case.

Regarding `O=C1CC(Cl)c2c(Cl)sc(Cl)c21` (centres undefined), the TGI in the experiment on HCT-15 colon was 5.07 µM; with SF-268 CNS, 5.51 µM; with NCI-H460 lung it was 40 µM; in the experiment with SK-OV-3 ovarian, 33.3 µM; in the experiment on MOLT-4 leukemia, 2.37 µM; in the experiment on A549 NSCLC, 12.7 µM. Also, the results for the TGI in the experiment with HCC-2998 colon and in the experiment on NCI-H226 lung were 5.54 µM and 28.8 µM, respectively.

As for `CC(C)(C)OC(=O)N1C/C=C\C(=O)C2(OCCO2)c2ccccc21`, the TGI in the experiment with HCT-15 colon is greater than 100 µM; with SF-268 CNS, greater than 100 µM; in the experiment with NCI-H460 lung, 50.5 µM; in the experiment on RPMI-8226 leukemia, 54.1 µM; in the experiment with SK-OV-3 ovarian, 99.2 µM; with MOLT-4 leukemia it was 76.5 µM. In addition, the TGI with A549 NSCLC is greater than 100 µM; in the experiment on RXF 393 renal, 37.8 µM; in the experiment on NCI-H226 lung, 38.9 µM.

With `Cc1nc2sccn2c1C(=O)OCCOCCOCCOCCOC(=O)c1c(C)nc2sccn12`, the TGI in the experiment with HCT-15 colon, in the experiment on SF-268 CNS, with NCI-H460 lung, in the experiment with RPMI-8226 leukemia, in the experiment on MOLT-4 leukemia and with A549 NSCLC was greater than 100 µM each time. For the same molecule, the TGI with HCC-2998 colon, in the experiment on RXF 393 renal and in the experiment on NCI-H226 lung was greater than 100 µM each time.

Consider `Cc1ccc(C2(c3ccc(C)c(O)c3C)CCN(C)CC2)c(C)c1O`, for which the TGI in the experiment on HCT-15 colon, in the experiment with SF-268 CNS, in the experiment on NCI-H460 lung, in the experiment on RPMI-8226 leukemia, in the experiment with MOLT-4 leukemia and in the experiment on A549 NSCLC was greater than 100 µM in each case. Further, the TGI with RXF 393 renal and with NCI-H226 lung was greater than 100 µM throughout.

`Clc1cccc(N=C/C=C/Nc2cccc(Cl)c2)c1`: the TGI in the experiment on HCT-15 colon is 37.7 µM; in the experiment on NCI-H460 lung, 35.2 µM; with RPMI-8226 leukemia, greater than 100 µM; in the experiment on MOLT-4 leukemia, 73.2 µM; in the experiment with A549 NSCLC, 83.9 µM; with HCC-2998 colon, 25.2 µM. This molecule also returned a TGI in the experiment on RXF 393 renal of 52.5 µM.

As to `C/C(NC(=O)c1ccccc1)=C(/C(=O)c1ccccc1)[C@@H]1OC(C)(C)O[C@@H]1[C@H]1COC(C)(C)O1`, the TGI in the experiment on HCT-15 colon was greater than 100 µM; with SF-268 CNS, greater than 100 µM; in the experiment on NCI-H460 lung it was 65.5 µM; in the experiment with RPMI-8226 leukemia it was 47.7 µM; in the experiment with MOLT-4 leukemia, 37.2 µM; in the experiment with A549 NSCLC it was greater than 100 µM. Besides, the TGI is 87.6 µM in the experiment with HCC-2998 colon, greater than 100 µM in the experiment with RXF 393 renal and greater than 100 µM in the experiment on NCI-H226 lung.

Consider `CC(C)CC(NC(=O)C(N)CCC(=O)OCc1ccccc1)C(=O)NC(COCc1ccccc1)C(=O)NC(Cc1ccccc1)C(=O)ON1C(=O)CCC1=O` (centres undefined) (H-E(OBn)LS(Bn)F-OSu; configuration not given here), for which the TGI was greater than 100 µM in the experiment with SF-268 CNS; 71.8 µM in the experiment with NCI-H460 lung; 61.4 µM in the experiment with RPMI-8226 leukemia; 87.8 µM in the experiment with SK-OV-3 ovarian; 62.8 µM in the experiment with MOLT-4 leukemia; greater than 100 µM in the experiment on A549 NSCLC. The TGI in the experiment on RXF 393 renal worked out at 78.2 µM.
